The values below come from patent US12577267B2, “Pyrimidine compounds for use as MAP4K1 inhibitors” (GLENMARK SPECIALITY S.A., priority 2021, dated 2026).

What is called inhibition is how much of the control response was suppressed. Read a high inhibition as a response far below the control. By IC50 is commonly meant the concentration that inhibits the measured activity by half. One may read the % Inhibition as the relative decrease from the control value, in per cent. Higher therefore signals strong suppression.

Structures can show the parent of a compound that is named as a salt. Where two headings read alike, the source gives them in different places.

The target in the assay is MAP4K-1 enzyme (Homo sapiens, UniProt Q92918). Nature of the assay: FRET one step binding assay (tracer displacement). Here is the method:
This is a one step binding assay based on the binding and displacement of the labeled tracer, where compound addition is followed by addition of the anti-GST tagged europium (Eu) as the donor and Alexa Fluor-labeled tracer as the acceptor.
Test compounds were dissolved in dimethylsulfoxide (DMSO) to prepare 10.0 mM stock solutions and diluted to the desired concentration. The final concentration of DMSO in the reaction was 3% (v/v). The assay mixture was prepared by mixing 2 nM of the Eu-Anti-GST Antibody and 5 nM MAP4K-1 enzyme in the Kinase buffer containing 50 mM HEPES (pH 7.5), 10 mM MgCl2, 1 mM EGTA, 0.01% Brij-35 with or without the desired concentration of the compound. The reaction was incubated on ice for 15 min. […] After shaking for 5 min the reaction was further incubated for 1 hour at room temperature and this was kept at 4° C. and read on ARTEMIS reader as per the kit instructions (Thermo). […] The activity was calculated as percent of control reaction. IC50 values were calculated from dose response curve by nonlinear regression analysis using GraphPad Prism software.

Sequence of MAP4K-1 enzyme (Q92918 whole entry): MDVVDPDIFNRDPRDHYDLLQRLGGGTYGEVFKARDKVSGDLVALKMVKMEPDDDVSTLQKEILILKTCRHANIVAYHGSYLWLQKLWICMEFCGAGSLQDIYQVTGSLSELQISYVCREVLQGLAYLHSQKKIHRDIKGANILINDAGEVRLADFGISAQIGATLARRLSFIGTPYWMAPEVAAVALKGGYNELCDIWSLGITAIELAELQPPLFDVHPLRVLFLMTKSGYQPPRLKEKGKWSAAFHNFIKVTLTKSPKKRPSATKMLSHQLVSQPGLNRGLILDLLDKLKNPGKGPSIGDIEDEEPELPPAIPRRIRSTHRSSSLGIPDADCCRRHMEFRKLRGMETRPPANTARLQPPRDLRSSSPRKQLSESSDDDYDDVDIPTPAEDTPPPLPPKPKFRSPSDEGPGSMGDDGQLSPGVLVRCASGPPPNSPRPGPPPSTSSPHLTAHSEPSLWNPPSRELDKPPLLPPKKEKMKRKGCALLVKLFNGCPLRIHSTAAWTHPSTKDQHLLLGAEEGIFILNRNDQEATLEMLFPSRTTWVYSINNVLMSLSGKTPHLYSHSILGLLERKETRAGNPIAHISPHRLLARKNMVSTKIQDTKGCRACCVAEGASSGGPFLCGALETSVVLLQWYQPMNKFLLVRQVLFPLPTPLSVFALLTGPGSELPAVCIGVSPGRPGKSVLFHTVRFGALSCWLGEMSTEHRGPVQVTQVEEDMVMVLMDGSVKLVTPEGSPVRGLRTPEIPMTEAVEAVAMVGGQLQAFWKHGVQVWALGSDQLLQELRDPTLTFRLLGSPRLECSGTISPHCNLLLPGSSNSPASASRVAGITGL

`COc1cc2c(cc1Nc1ncc(Cl)c(Nc3ccc(OS(=O)(=O)F)nc3P(C)(C)=O)n1)CN(C)CC2` [Example 21, 5-((5-Chloro-2-((6-methoxy-2-methyl-1,2,3,4-tetrahydroisoquinolin-7-yl)amino)pyrimidin-4-yl)amino)-6-(dimethylphosphoryl)pyridin-2-yl sulfofluoridate dihydrochloride] had an inhibition at 1 µM (1 μM compound) of 79.2%. The inhibition at 10 µM (10 μM compound) stood at 81.6%. For the same molecule, under “IC50 (nM)”, the IC50 is less than 50 nM.

Turning to `COc1cc2c(cc1Nc1ncc(C(N)=O)c(Nc3ccc(OS(=O)(=O)F)cc3P(C)(C)=O)n1)CN(C)CC2` [Example 3, 4-((5-Carbamoyl-2-((6-methoxy-2-methyl-1,2,3,4-tetrahydroisoquinolin-7-yl)amino)pyrimidin-4-yl)amino)-3-(dimethylphosphoryl)phenyl sulfurofluoridate dihydrochloride], testing at 1 µM (1 μM compound) gave an inhibition of 85.6%. Further, testing at 10 µM (10 μM compound) gave an inhibition of 91.2%. The same molecule displayed a half-maximal inhibitory concentration (IC50) (IC50 (nM)) of less than 50 nM.

Regarding `COc1cc2c(cc1Nc1ncc(Cl)c(Nc3c(C)cc(OS(=O)(=O)F)cc3P(C)(C)=O)n1)CN(C)CC2` [Example 15, 4-((5-Chloro-2-((6-methoxy-2-methyl-1,2,3,4-tetrahydroisoquinolin-7-yl)amino)pyrimidin-4-yl)amino)-3-(dimethylphosphoryl)-5-methylphenyl sulfurofluoridate dihydrochloride], for the setting “1 μM compound”, at 1 µM the inhibition was 78.6%. Besides, the inhibition at 10 µM (10 μM compound) worked out at 91.8%. The same molecule gave an IC50 (IC50 (nM)) of more than 500 nM.

Regarding `COc1cc2c(cc1Nc1ncc(Cl)c(Nc3ccc(OC4COC4)cc3P(C)(C)=O)n1)CN(C)CC2` [Example 51, (2-((5-Chloro-2-((6-methoxy-2-methyl-1,2,3,4-tetrahydroisoquinolin-7-yl)amino)pyrimidin-4-yl)amino)-5-(oxetan-3-yloxy)phenyl)dimethyl phosphine oxide], 1 µM produced 93.1% inhibition (1 μM compound). The molecule also gave an inhibition at 10 µM (10 μM compound) of 94.3%. For the same molecule, the IC50 (read-out: IC50) was less than 50 nM.

For the molecule `COc1cc2c(cc1Nc1ncc(Cl)c(Nc3cc(F)c(OS(=O)(=O)F)cc3P(C)(C)=O)n1)CN(C)CC2` [Example 27, 4-((5-Chloro-2-((6-methoxy-2-methyl-1,2,3,4-tetrahydroisoquinolin-7-yl)amino)pyrimidin-4-yl)amino)-5-(dimethylphosphoryl)-2-fluorophenyl sulfofluoridate dihydrochloride], the inhibition at 1 µM (1 μM compound) came to 81.1%. Also, for the setting “10 μM compound”, the inhibition at 10 µM came out at 82.6%. Besides, the IC50 (IC50 (nM)) was less than 50 nM.

For the molecule `COc1cc2c(cc1Nc1ncc(Cl)c(Nc3ccc(OS(=O)(=O)F)cc3P(C)(C)=O)n1)C(C)(C)N(C)CC2` [Example 11, 4-((5-Chloro-2-((6-methoxy-1,1,2-trimethyl-1,2,3,4-tetrahydroisoquinolin-7-yl)amino)pyrimidin-4-yl)amino)-3-(dimethylphosphoryl)phenyl sulfurofluoridate dihydrochloride], the inhibition at 1 µM (1 μM compound) was 75.1%. The same molecule yielded an inhibition at 10 µM (10 μM compound) of 87.2%. Moreover, the concentration for half-maximal inhibition (IC50) (IC50 (nM)) was less than 50 nM.

`COc1cc2c(cc1Nc1ncc(Cl)c(Nc3ncc(OS(=O)(=O)F)cc3P(C)(C)=O)n1)C(C)N(C)CC2` (single isomer, unassigned; isomer 2) [Example 24, 6-((5-Chloro-2-((6-methoxy-1,2-dimethyl-1,2,3,4-tetrahydroisoquinolin-7-yl)amino)pyrimidin-4-yl)amino)-5-(dimethylphosphoryl)pyridin-3-yl sulfofluoridate dihydrochloride (Isomer 2)]: the “% Inhibition at 1 μM” value (1 μM compound, 1 µM) is on record as 86.68%. Moreover, the “% Inhibition at 10 μM” value (10 μM compound, 10 µM) came to 85.52%. Also, the IC50 (IC50 (nM)) was less than 50 nM.

The molecule `CP(C)(=O)c1cc(OS(=O)(=O)F)ccc1Nc1nc(Nc2cc3n(n2)CCNC3)ncc1Cl` [Example 42, 4-((5-Chloro-2-((4,5,6,7-tetrahydropyrazolo[1,5-a]pyrazin-2-yl)amino)pyrimidin-4-yl)amino)-3-(dimethylphosphoryl)phenyl sulfofluoridate dihydrochloride] returned an inhibition at 1 µM (1 μM compound) of 84%. Also, for the setting “10 μM compound”, at 10 µM the inhibition was 83%. This molecule had an IC50 (IC50 (nM)) of less than 50 nM.

Molecule `COCCOc1ccc(Nc2nc(Nc3cc4c(cc3OC)CCN(C)C4)ncc2Cl)c(P(C)(C)=O)c1` [Example 50, (2-((5-Chloro-2-((6-methoxy-2-methyl-1,2,3,4-tetrahydroisoquinolin-7-yl)amino)pyrimidin-4-yl)amino)-5-(2-methoxyethoxy)phenyl)dimethyl phosphine oxide] had an inhibition at 1 µM (1 μM compound) of 92.7%. This molecule also came in with an inhibition at 10 µM (10 μM compound) of 94.8%. Besides, the 50% inhibitory concentration (IC50) (read-out: IC50) was less than 50 nM.

Molecule `COc1cc2c(cc1Nc1ncc(Cl)c(Nc3cc(OS(=O)(=O)F)ccc3P(C)(C)=O)n1)CN(C)CC2` [Example 18, 3-((5-Chloro-2-((6-methoxy-2-methyl-1,2,3,4-tetrahydroisoquinolin-7-yl)amino)pyrimidin-4-yl)amino)-4-(dimethylphosphoryl)phenyl sulfurofluoridate dihydrochloride] displayed an inhibition at 1 µM (1 μM compound) of 87.3%. For the same molecule, for the setting “10 μM compound”, the inhibition at 10 µM is 83.2%. For the same molecule, under “IC50 (nM)”, the IC50 is less than 50 nM.

Under “1 μM compound”, `CN1CCc2cc(OC(F)F)c(Nc3ncc(Cl)c(Nc4ccc(OS(=O)(=O)F)cc4P(C)(C)=O)n3)cc2C1` [Example 10, 4-((5-Chloro-2-((6-(difluoromethoxy)-2-methyl-1,2,3,4-tetrahydroqisoquinolin-7-yl)amino)pyrimidin-4-yl)amino)-3-(dimethylphosphoryl)phenyl sulfurofluoridate dihydrochloride] displayed an inhibition at 1 µM of 92.3%. Further, under “10 μM compound”, testing at 10 µM gave an inhibition of 89%. In addition, the half-inhibitory concentration (IC50) (IC50 (nM)) is less than 50 nM.

Take `COc1cc2c(cc1Nc1ncc(Cl)c(Nc3ccc(O[C@@H]4CCOC4)cc3P(C)(C)=O)n1)CN(C)CC2` [Example 49, (R)-(2-((5-Chloro-2-((6-methoxy-2-methyl-1,2,3,4-tetrahydroisoquinolin-7-yl)amino)pyrimidin-4-yl)amino)-5-((tetrahydrofuran-3-yl)oxy)phenyl)dimethyl phosphine oxide]: the inhibition at 1 µM (1 μM compound) was determined as 94.3%. This molecule came in with an inhibition at 10 µM (10 μM compound) of 91.7%. In addition, under “read-out: IC50”, the IC50 was less than 50 nM.

As for `[2H]C([2H])([2H])N1CCc2cc(OC)c(Nc3ncc(Cl)c(Nc4ccc(OS(=O)(=O)F)cc4P(C)(C)=O)n3)cc2C1` [Example 4, 4-((5-Chloro-2-((6-methoxy-2-(methyl-d3)-1,2,3,4-tetrahydroisoquinolin-7-yl)amino)pyramidin-4-yl)amino)-3-(dimethylphosphoryl) phenylsulfurofluoridate dihydrochloride], under “1 μM compound”, the inhibition at 1 µM was found to be 72.9%. In addition, for the setting “10 μM compound”, 10 µM produced 78.4% inhibition. Further, for the setting “IC50 (nM)”, the 50% inhibitory concentration (IC50) is less than 50 nM.

Regarding `COc1cc2c(cc1Nc1ncc(Cl)c(Nc3ccc(OS(=O)(=O)F)cc3P(C)(C)=O)n1)C(C)N(C)CC2` (single isomer, unassigned; isomer 1) [Example 29, 4-((5-Chloro-2-((6-methoxy-1,2-dimethyl-1,2,3,4-tetrahydroisoquinolin-7-yl)amino)pyrimidin-4-yl)amino)-3-(dimethylphosphoryl)phenyl sulfofluoridate dihydrochloride (Isomer 1)], where the note is “1 μM compound”, the inhibition at 1 µM came out at 76.5%. For the same molecule, the inhibition at 10 µM (10 μM compound) came out at 76.9%. For the same molecule, the IC50 (IC50 (nM)) was less than 50 nM.
